Assay results reported in patent US20100240754A1, “UNSATURATED FATTY AMINO ACID DERIVATIVES AND USE THEREOF IN DERMAL COSMETOLOGY” (Pierre Fabre Demo-Cosmetique, priority 2007, published 2010).

Assays:
[1] = tested on: production of IL8; assay: Production of interleukin 8 induced in keratinocytes by PMA and calcium ionophore A23187 (ELISA); type: cell-based; details: for Inhibitory activity % of molecules evaluated on the production of IL8 / inhibition at 3 µg/mL: 3 μg/mL, keratinocytes, 60 min pre-incubation, PMA 1 μM + A23187 0.1 μM, 6 hours, percentage of activity/stimulated control; for inhibition at 3 µg/mL: Keratinocyte, read-out: Inhibitory activity % of molecules evaluated on the production of IL8; for anti-inflammatory potentialities (IL8 production), in words: summary of Table 2 data
Protocol: In this study conducted on 96-well plates, we evaluated the activity of amino-alkene acids, on the production of interleukin 8 induced at the keratinocyte by the phorbol ester PMA and the calcium ionophore A23187.
(§1) The suspension of keratinocytes in supplemented KSFM is distributed into plates of 96 wells (3.10^4 cells/well), and incubated for 16 hours at 37° C. in an atmosphere with 5% CO2. The keratinocytes are then rinsed with PBS in order to remove the non-adherent cells and then exposed to the products to be tested included in non-supplemented KSFM (which might interfere in the assay).
(§2) The tested culture concentration is 3 μg/mL. It was retained after a preliminary test for evaluating cytotoxicity (neutral red) and it is not cytotoxic.
For each treatment, 3 wells are produced. The cells are pre-incubated for 60 min with the products to be tested and then stimulated, in parallel with negative controls without any stimulant: Phorbol Myristate Acetate (PMA) 1 μM+calcium Ionophore (A23187) 0.1 μM.
Incubation for 6 hours at 37° C. in a humid air atmosphere containing 5% of CO2.
The culture media of each of the wells are recovered, centrifuged at 3,000 rpm and stored at −80° C.
Assay of the cytokines: IL8 is assayed by an immunoenzymatic method with an ELISA kit (Immunotech).
The results are gathered in Table 2 and are expressed in percentage of activity/stimulated control.

[2] = tested on: fibroblast cell line L929; assay: In vitro assay of intracellular OASes (H2DCF-DA probe) after H2O2/iron oxidative stress; type: cell-based, murine; details: Mus musculus, L929, 3 h pretreatment, H2O2 200 μM / iron 2 mM, read-out: percentage of inhibition of intracellular OAS production (protection); for inhibition at 20 pg/mL: dose 0.02 ng/mL; for inhibition at 0.0002 µg/mL: dose 0.2 ng/mL; for inhibition at 0.002 µg/mL: dose 2 ng/mL; for inhibition at 0.02 µg/mL: dose 20 ng/mL
Description: We have set up a model for an in vitro study of oxidative stress induced by H2O2/iron, H2O2 which massively generates intracellular OASes by a chain reaction triggered by the oxidation of membrane lipids.
This technique is based on the use of a fluorescent probe, 6-carboxy-2′, 7′ dichlorodihydrofluorescein diacetate, di(acetoxymethyl ester) (H2DCF-DA), which, once it has penetrated the cell, is deacetylated by the intracellular esterases then forming H2DCF. This product is oxidized by intracellular OASes into a highly fluorescent compound: 2′,7′-dichlorofluorescein, (DCF) (Suematsu M et al, 1996, Free Radicals Practical Approach, Punchard ed. P83-99).
Cutaneous murine fibroblast cell line L929.
The tested concentrations are non-cytotoxic concentrations. Cytoxicity was evaluated by the neutral red method, after incubation of the product for 3 hours.
The reference anti-radical product is vitamin E or α-tocopherol (MW: 430.7) (SIGMA, ref.: T-1539).
The mother solution is prepared at 400 mg/mL in DMSO and stored at −20° C. The pretreatment solution is prepared extemporaneously at 400 μg/mL in a culture medium without FCS.
For evaluating unsaturated fatty amino acid derivatives, the dilutions are prepared in the culture medium extemporaneously for a range of concentrations of 0.02, 0.2, 2 and 20 ng/mL.
The cells of the fibroblast line L929 are sown in microplates with 96 wells with a flat bottom in 100 μL of DMEM supplemented with 10% of FCS, and they are then incubated overnight at 37° C. in a humid atmosphere with 5% CO2.
The dilutions of the products to be tested and of the reference molecule are conducted in culture mediums without FCS, and then deposited in 7 wells in an amount of 100 μL per well.
The cells are then incubated for 3 hours at 37° C. in a humid atmosphere with 5% CO2.
The cells are rinsed with PBS 1× in an amount of 100 μL per well. Next they are set to incubate for 30 min at 37° C. in a humid atmosphere with 5% CO2 and with 50 μL of H2DCF-DA probe at 5 μM.
After 30 min in contact with the probe alone, the cells are incubated for 30 min at 37° C. in a humid atmosphere with […] with addition of 25 μL of H2O2 at 800 μM and 25 μL of 8 mM ferrous and ferric iron solution, in order to have final concentrations of 200 μM of H2O2 and 2 mM of ferrous and ferric iron.
The cells are then rinsed with PBS 1× in an amount of 100 μL per well, and then incubated for 30 min at 37° C. in a humid atmosphere with 5% CO2 and with 100 μL of PBS 1×.
These 1 h 30 minutes of incubation at 37° C. allow the intracellular esterases to deacetylate the H2DCF probe, oxidizable by intracellular OASes into DCF; a fluorescent compound, the formation of which is proportional to the amount of intracellular OASes.
The fluorescence intensity is read with the cytofluorimeter at λexcitation=485 nm and λemission=530 nm. It reflects the amount of produced intracellular OASes.
With the below ratio, it is possible to calculate for each concentration of tested product the % of protection against production of intracellular OASes (since the fluorescence intensity or FI expresses intracellular release of OASes).
The values indicated in Table 3 are percentages of inhibition of intracellular OAS production following an exogenous oxidative stress, relatively to <> cells (100%) and to <> cells (0%).

[3] = tested on: production of PG6KF1α; assay: Production of prostaglandin 6KF1α by keratinocytes stimulated with calcium ionophore A23187 (ELISA); type: cell-based; details: for inhibition at 3 µg/mL: Keratinocyte, read-out: Inhibitory activity % of molecules evaluated on the production of PG6KF1α; for effective dose 45 (DE45), production of PG6KF1α: keratinocytes stimulated with A23187; for anti-inflammatory potentialities (PG6KF1α production), in words: summary of Table 1 data
Protocol: The prostaglandin PG6KF1 alpha, is one of the major metabolites produced by the stimulated keratinocyte, and representative of the modulation of the production of metabolites of the metabolism of arachidonic acid stemming from the cyclo-oxygenase route.
as §1, with “DMEM with 10% FCS” for “supplemented KSFM”, “in” for “into”, “6” for “96”, “(1.2 106” for “(3.10^4”, “eliminate” for “remove the”, “DMEM without FCS” for “non-supplemented KSFM”
as §2
For each treatment, 3 wells were produced. The cells were pre-incubated for 60 min with the products to be tested and then an agent stimulating the cascade of arachidonic acid, the calcium ionophore, is added for 5 hours: the calcium ionophore A23187 is used at a concentration of 1 μM.
After these 5 hours of culture, the culture media of each of the wells are recovered, centrifuged at 3,000 rpm and stored at −80° C.
The production of prostaglandin 6KF1α for each of the tests is measured with the Elisa kit EUROMEDEX.
The results are gathered in Table 1 and are expressed in percentage of activity/stimulated control.

[4] = 3 μg/mL, keratinocytes, 60 min pre-incubation, calcium ionophore A23187 1 μM for 5 hours, percentage of activity/stimulated control

Cl.NCCC/C=C/C(=O)O [Compound No. 1, (E)-6-amino-hex-2-enoic acid]
Inhibitory activity % of molecules evaluated on the production of IL8 [1]: ~ | inhibition at 20 pg/mL [2]: 12% | inhibition at 0.0002 µg/mL [2]: 13% | inhibition at 0.002 µg/mL [2]: 5% | inhibition at 0.02 µg/mL [2]: 1% | inhibition at 3 µg/mL [3, 4]: < 0%

NCCC/C=C(/F)C(=O)O [Compound No. 2, (E)-6-amino-2-fluoro-hex-2-enoic acid]
Inhibitory activity % of molecules evaluated on the production of IL8 [1]: ~ | inhibition at 20 pg/mL [2]: 14% | inhibition at 0.0002 µg/mL [2]: 19% | inhibition at 0.002 µg/mL [2]: 14% | inhibition at 0.02 µg/mL [2]: -13% | Inhibitory activity % of molecules evaluated on the production of PG6KF1α [3, 4]: ~

Cl.NCCCC/C=C/C(=O)O [Compound No. 4, (E)-7-amino-hept-2-enoic acid]
Inhibitory activity % of molecules evaluated on the production of IL8 [1]: ~ | inhibition at 20 pg/mL [2]: 13% | inhibition at 0.0002 µg/mL [2]: 12% | inhibition at 0.002 µg/mL [2]: 8% | inhibition at 0.02 µg/mL [2]: -14% | inhibition at 3 µg/mL [3, 4]: 18%

NCCCCC=C(F)C(=O)O [Compound No. 5, (Z+E)-7-amino-2-fluoro-hept-2-enoic acid]
inhibition at 3 µg/mL [1]: < 0% | inhibition at 20 pg/mL [2]: 18% | inhibition at 0.0002 µg/mL [2]: 23% | inhibition at 0.002 µg/mL [2]: 26% | inhibition at 0.02 µg/mL [2]: 23% | inhibition at 3 µg/mL [3, 4]: 41% | effective dose 45 (DE45), production of PG6KF1α [3]: 25 µg/mL | anti-inflammatory potentialities (PG6KF1α production), in words [3]: anti-inflammatory potentialities

Cl.NCCCCC/C=C/C(=O)O [Compound No. 7, (E)-8-amino-oct-2-enoic acid]
Inhibitory activity % of molecules evaluated on the production of IL8 [1]: ~ | inhibition at 20 pg/mL [2]: 31% | inhibition at 0.0002 µg/mL [2]: 33% | inhibition at 0.002 µg/mL [2]: 26% | inhibition at 0.02 µg/mL [2]: 32% | inhibition at 3 µg/mL [3, 4]: 36% | anti-inflammatory potentialities (PG6KF1α production), in words [3]: anti-inflammatory potentialities

Cl.NCCCCCC/C=C/C(=O)O [Compound No. 8, (E)-9-amino-non-2-enoic acid]
inhibition at 3 µg/mL [1]: 14% | inhibition at 20 pg/mL [2]: 22% | inhibition at 0.0002 µg/mL [2]: 25% | inhibition at 0.002 µg/mL [2]: 20% | inhibition at 0.02 µg/mL [2]: 19% | inhibition at 3 µg/mL [3, 4]: 8%

Cl.NCCCCCCC=C(F)C(=O)O [Compound No. 9, 9-amino-2-fluoro-non-2-enoic acid]
inhibition at 3 µg/mL [1]: 20% | anti-inflammatory potentialities (IL8 production), in words [1]: anti-inflammatory potentialities | inhibition at 20 pg/mL [2]: 18% | inhibition at 0.0002 µg/mL [2]: 20% | inhibition at 0.002 µg/mL [2]: 23% | inhibition at 0.02 µg/mL [2]: 18% | inhibition at 3 µg/mL [3, 4]: 17%

Cl.NCCCCCCCCCCCC=C(F)C(=O)O [Compound No. 10, 14-amino-2-fluoro-tetradec-2-enoic acid]
inhibition at 3 µg/mL [1]: 8% | inhibition at 20 pg/mL [2]: 20% | inhibition at 0.0002 µg/mL [2]: 25% | inhibition at 0.002 µg/mL [2]: 18% | inhibition at 0.02 µg/mL [2]: 15% | inhibition at 3 µg/mL [3, 4]: 38% | anti-inflammatory potentialities (PG6KF1α production), in words [3]: anti-inflammatory potentialities

Cl.NCCCCCCCCCCC/C=C/C(=O)O [Compound No. 11, (E)-14-amino-tetradec-2-enoic acid]
inhibition at 3 µg/mL [1]: 22% | anti-inflammatory potentialities (IL8 production), in words [1]: anti-inflammatory potentialities | inhibition at 20 pg/mL [2]: 20% | inhibition at 0.0002 µg/mL [2]: 19% | inhibition at 0.002 µg/mL [2]: 22% | inhibition at 0.02 µg/mL [2]: 19% | inhibition at 3 µg/mL [3, 4]: 40% | effective dose 45 (DE45), production of PG6KF1α [3]: 10 µg/mL | anti-inflammatory potentialities (PG6KF1α production), in words [3]: anti-inflammatory potentialities

NCCC/C=C(\F)C(=O)O [compound 3, (Z)-6-amino-2-fluoro-hex-2-enoic acid]
Inhibitory activity % of molecules evaluated on the production of IL8 [1]: ~ | inhibition at 20 pg/mL [2]: 15% | inhibition at 0.0002 µg/mL [2]: 11% | inhibition at 0.002 µg/mL [2]: 5% | inhibition at 0.02 µg/mL [2]: 1% | inhibition at 3 µg/mL [3, 4]: 22%

NCCCC/C=C(\F)C(=O)O [compound 6, (Z)-7-amino-2-fluoro-hept-2-enoic acid]
inhibition at 3 µg/mL [1]: < 0% | inhibition at 20 pg/mL [2]: 31% | inhibition at 0.0002 µg/mL [2]: 30% | inhibition at 0.002 µg/mL [2]: 21% | inhibition at 0.02 µg/mL [2]: 26% | inhibition at 3 µg/mL [3, 4]: 25%
